Test results reported in ChEMBL document CHEMBL1122855, “Antimalarial agents. 1. alpha-Santonin-derived cyclic peroxide as potential antimalarial agent” (1985).
Values after ≈ are worked out from the molar mass of the structure shown.

Experiments:
[1] = tested on: Mus musculus; test: In vivo toxicity against chloroquine-resistant (Smith) isolates of Plasmodium berghei in mice (Mus musculus); format: functional
[2] = tested on: Mus musculus; test: In vitro antimalarial activity against chloroquine-resistant (Smith) isolates of Plasmodium falciparum at dose 160 mg/kg in mice (Mus musculus); format: functional

Row | SMILES | Toxicity [1] [mg/kg] | ED50 [2] [µg/mL]
1 | CC1=C[C@H]2C[C@]3(C)CC[C@H]4[C@H](C)C(=O)O[C@@H]4C13OO2 (single isomer, unassigned) | 640 | 0.72859 (≈ 2.76 µM)
2 | C[C@@H]1CC[C@H]2[C@@H](C)C(=O)O[C@@H]3O[C@@]4(C)CC[C@@H]1[C@]32OO4 [ARTEMISININ] | – | <0.0034
